One may read the Km as the concentration of substrate that gives half-maximal velocity.

Assay [1] has as its target T1, Arabidopsis HPPD (SEQ ID NO:53), wild-type (Arabidopsis thaliana, UniProt P93836).
T1 construct: His6 (N); made in house; host or cells: E. coli BL21 (DE3)
T1 sequence (P93836 1-445): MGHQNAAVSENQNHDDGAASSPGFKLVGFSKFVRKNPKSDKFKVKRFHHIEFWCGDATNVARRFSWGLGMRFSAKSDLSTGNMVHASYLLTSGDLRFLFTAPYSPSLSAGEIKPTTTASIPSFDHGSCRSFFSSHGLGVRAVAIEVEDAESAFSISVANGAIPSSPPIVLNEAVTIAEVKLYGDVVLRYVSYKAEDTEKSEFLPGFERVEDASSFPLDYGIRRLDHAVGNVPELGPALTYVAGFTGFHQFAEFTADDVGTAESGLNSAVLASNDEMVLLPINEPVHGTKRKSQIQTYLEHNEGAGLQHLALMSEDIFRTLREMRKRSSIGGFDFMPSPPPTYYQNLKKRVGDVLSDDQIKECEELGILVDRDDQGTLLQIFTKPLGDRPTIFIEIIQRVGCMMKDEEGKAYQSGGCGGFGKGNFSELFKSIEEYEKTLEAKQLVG
The experiment in a line: HPPD activity assay (HGA by HPLC), wild-type enzyme characterization. It is filed as biochemical. The following applies: Arabidopsis HPPD. As for the experimental part:
(§1) HPPD produces homogentisic acid and CO2 from 4-hydroxyphenylpyruvate (4-HPP) and 02. The activity assay for HPPD is based on the analysis of homogentisic acid by reversed phase HPLC. The assay mixture can contain 150 mM potassium phosphate buffer pH 7.0, 50 mM L-ascorbic acid, 100 μM Catalase (Sigma-Aldrich), 1 μM FeSO4 and 0.2 units of purified HPPD enzyme in a total volume of 505 μl. 1 unit is defined as the amount of enzyme that is required to produce 1 nmol of HGA per minute at 20° C.
(§2) After a preincubation of 30 min the reaction is started by adding 4-HPP to a final concentration of 0.05 mM. The reaction is allowed to proceed for 45 min at room temperature. The reaction is stopped by the addition of 50 μl of 4.5 M phosphoric acid. The sample is filtered using a […] pore size PVDF filtration device.
(§3) 5 μl of the cleared sample is analyzed on an UPLC HSS T3 column (particle size 1.8 μm, dimensions 2.1×50 mm; Waters) by isocratic elution using 90% 20 mM NaH2PO4 pH 2.2, 10% methanol (v/v).
(§4) HGA is detected electrochemically at 750 mV (mode: DC; polarity: positive) and quantified by integrating peak areas (Empower software; Waters).
(§5) Inhibitors are dissolved in DMSO (dimethylsulfoxide) to a concentration of 0.5 mM. From this stock solution serial five-fold dilutions are prepared in DMSO, which are used in the assay. The respective inhibitor solution accounts for 1% of the assay volume. […] Activities are normalized by setting the uninhibited enzyme activity to 100%. IC50 values are calculated using non-linear regression.
(§6) Using methods which are described in the above examples or well known in the art, purified, recombinant wild-type HPPD enzymes are characterized with respect to their kinetic properties and sensitivity towards HPPD inhibiting herbicides. Apparent michaelis constants (Km) and maximal reaction velocities (Vmax) are calculated by non-linear regression with the software GraphPad Prism 5 (GraphPad Software, La Jolla, USA) using a substrate inhibition model. […] Weighted means (by standard error) of Km and IC50 values are calculated from at least three independent experiments.
(§7) Field performance of the HPPD enzyme, which is used as a herbicide tolerance trait, may depend not only on its lack of sensitivity towards HPPD inhibiting herbicides but also on its activity. To assess the potential performance of a herbicide tolerance trait a tolerance index (TI) is calculated using the following formula: […]
(§8) Easy comparison and ranking of each trait is enabled by normalizing tolerance indexes on Arabidopsis wild-type HPPD.

Assay [2] has as its target T2, Hordeum HPPD (SEQ ID NO:2), wild-type (Hordeum vulgare, UniProt O48604, A164G/R146V/R147D/R148G).
T2 construct: His (N); made in house; host or cells: E. coli BL21 (DE3)
The description is as above. The class given is biochemical. Particulars: Hordeum HPPD. How it is done: as §1, §2, §3, §4, §5, §6, §7, §8

Setting [3] is: apparent Km, read-out: Km [μM] (4-HPP).
Setting [4] is: apparent kcat from Vmax, substrate 4-HPP.

T2 sequence (O48604 whole entry R146V/R147D/R148G/A164G): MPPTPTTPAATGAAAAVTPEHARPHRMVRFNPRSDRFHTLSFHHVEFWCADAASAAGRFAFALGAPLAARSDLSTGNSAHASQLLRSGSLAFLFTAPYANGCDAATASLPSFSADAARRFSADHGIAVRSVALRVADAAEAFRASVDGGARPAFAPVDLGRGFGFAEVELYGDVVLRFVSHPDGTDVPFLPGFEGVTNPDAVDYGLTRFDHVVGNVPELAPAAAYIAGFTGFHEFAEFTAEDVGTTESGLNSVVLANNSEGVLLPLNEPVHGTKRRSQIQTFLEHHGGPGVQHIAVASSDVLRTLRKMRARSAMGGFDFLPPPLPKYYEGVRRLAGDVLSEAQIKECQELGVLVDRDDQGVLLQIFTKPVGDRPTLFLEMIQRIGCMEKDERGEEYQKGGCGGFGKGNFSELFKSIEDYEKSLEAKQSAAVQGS

For `O=C(O)C(=O)Cc1ccc(O)cc1` [Inhibitor 4-HPP, 4-hydroxyphenylpyruvate, reference compound], the Km in assay [1] (setting [3]) was 13 µM; in assay [2] (setting [3]) it was 26 µM. Moreover, the kcat in assay [1] (setting [4]) amounted to 12.9 S^−1; in assay [2] (setting [4]), 11.5 S^−1.

For the origin of these results see patent US20160102317A1, “PLANTS HAVING INCREASED TOLERANCE TO HERBICIDES” (BASF SE, priority 2013, published 2016).
